Data from ChEMBL document CHEMBL1154088, “Synthesis, biological evaluation and docking studies of novel benzopyranone congeners for their expected activity as anti-inflammatory, analgesic and antipyretic agents” (Bioorg Med Chem, 2009).

Columns and labels:
Mus musculus [1] = test: Analgesic activity in mouse assessed as protection against acetic acid-induced writhing at 5 mg/kg, sc administered 30 mins before acetic acid challenge measured after 1 hr relative to control; format: functional; conditions: route subcutaneous
Mus musculus [2] = test: Analgesic activity in mouse assessed as protection against acetic acid-induced writhing at 5 mg/kg, sc administered 30 mins before acetic acid challenge measured after 4 hrs relative to control; format: functional; conditions: route subcutaneous
Mus musculus [3] = test: Analgesic activity in mouse assessed as protection against acetic acid-induced writhing at 5 mg/kg, sc administered 30 mins before acetic acid challenge measured after 2 hrs relative to control; format: functional; conditions: route subcutaneous
Mus musculus [4] = test: Analgesic activity in mouse assessed as protection against acetic acid-induced writhing at 5 mg/kg, sc administered 30 mins before acetic acid challenge measured after 3 hrs relative to control; format: functional; conditions: route subcutaneous
Rattus norvegicus [5] = test: Antipyretic activity against yeast-induced hyperpyrexia in hyperthermic rat assessed as rectal temperature at one-tenth of LD50 administered subcutaneously 18 hrs after yeast challenge measured after 3 hrs (Rvb=39.20 +/- 0.24 degC); format: functional
Rattus norvegicus [6] = test: Antipyretic activity against yeast-induced hyperpyrexia in hyperthermic rat assessed as rectal temperature at one-tenth of LD50 administered subcutaneously 18 hrs after yeast challenge measured after 2 hrs (Rvb=39.11 +/- 0.26 degC); format: functional
Mus musculus [7] = test: Analgesic activity in mouse assessed as protection against acetic acid-induced writhing at one-tenth of LD50 administered subcutaneously 30 mins before acetic acid challenge measured after 3 hrs relative to control; format: functional
Rattus norvegicus [8] = test: Antipyretic activity against yeast-induced hyperpyrexia in hyperthermic rat assessed as rectal temperature at one-tenth of LD50 administered subcutaneously 18 hrs after yeast challenge measured after 1 hr (Rvb=39.24 +/- 0.22 degC); format: functional
Mus musculus [9] = test: Analgesic activity in mouse assessed as protection against acetic acid-induced writhing at one-tenth of LD50 administered subcutaneously 30 mins before acetic acid challenge measured after 2 hrs relative to control; format: functional
Mus musculus [10] = test: Analgesic activity in mouse assessed as protection against acetic acid-induced writhing at one-tenth of LD50 administered subcutaneously 30 mins before acetic acid challenge measured after 4 hrs relative to control; format: functional
[11] = Toxicity in sc dosed albino mouse up to 24 hrs; format: organism-based; conditions: in vivo
Rattus norvegicus [12] = test: Antipyretic activity against yeast-induced hyperpyrexia in hyperthermic rat assessed as rectal temperature at one-tenth of LD50 administered subcutaneously 18 hrs after yeast challenge measured after 4 hrs (Rvb=39.17 +/- 0.20 degC); format: functional
Rattus norvegicus [13] = test: Antiinflammatory activity against carrageenan-induced foot paw edema in rat assessed as reduction in paw size at one-tenth of LD50 administered subcutaneously 30 mins before carrageenan challenge measured after 3 hrs relative to control; format: functional; parameters: scale not given: the % may be the effect or the level left
Mus musculus [14] = test: Analgesic activity in mouse assessed as protection against acetic acid-induced writhing at one-tenth of LD50 administered subcutaneously 30 mins before acetic acid challenge measured after 1 hr relative to control; format: functional
Rattus norvegicus [15] = test: Antiinflammatory activity against carrageenan-induced foot paw edema in rat assessed as reduction in paw size at 20 mg/kg, sc administered 30 mins before carrageenan challenge measured after 3 hrs relative to control; format: functional; parameters: scale not given: the % may be the effect or the level left; conditions: route subcutaneous
Rattus norvegicus [16] = test: Antipyretic activity against yeast-induced hyperpyrexia in hyperthermic rat assessed as rectal temperature at 100 mg/kg, sc administered 18 hrs after yeast challenge measured after 1 hr (Rvb=39.24 +/- 0.22 degC); format: functional; conditions: route subcutaneous
Rattus norvegicus [17] = test: Antipyretic activity against yeast-induced hyperpyrexia in hyperthermic rat assessed as rectal temperature at 100 mg/kg, sc administered 18 hrs after yeast challenge measured after 2 hrs (Rvb=39.11 +/- 0.26 degC); format: functional; conditions: route subcutaneous
Rattus norvegicus [18] = test: Antipyretic activity against yeast-induced hyperpyrexia in hyperthermic rat assessed as rectal temperature at 100 mg/kg, sc administered 18 hrs after yeast challenge measured after 3 hrs (Rvb=39.20 +/- 0.24 degC); format: functional; conditions: route subcutaneous
Rattus norvegicus [19] = test: Antipyretic activity against yeast-induced hyperpyrexia in hyperthermic rat assessed as rectal temperature at 100 mg/kg, sc administered 18 hrs after yeast challenge measured after 4 hrs (Rvb=39.17 +/- 0.20 degC); format: functional; conditions: route subcutaneous

| Compound | Activity (Mus musculus [1]) | Activity (Mus musculus [2]) | Activity (Mus musculus [3]) | Activity (Mus musculus [4]) | Activity (Rattus norvegicus [5]) | Activity (Rattus norvegicus [6]) | Activity (Mus musculus [7]) | Activity (Rattus norvegicus [8]) | Activity (Mus musculus [9]) | Activity (Mus musculus [10]) | LD50 at 24 h [11] | Activity (Rattus norvegicus [12]) | Activity (Rattus norvegicus [13]) | Activity (Mus musculus [14]) | Activity (Rattus norvegicus [15]) | Activity (Rattus norvegicus [16]) | Activity (Rattus norvegicus [17]) | Activity (Rattus norvegicus [18]) | Activity (Rattus norvegicus [19]) |
| --- | --- | --- | --- | --- | --- | --- | --- | --- | --- | --- | --- | --- | --- | --- | --- | --- | --- | --- | --- |
| O=C([O-])Cc1ccccc1Nc1c(Cl)cccc1Cl.[Na+] [DICLOFENAC SODIUM] | 74.02% | 55.82% | 75.24% | 68.44% |  |  |  |  |  |  |  |  |  |  |  |  |  |  |  |
| O=c1cc(-c2ccccc2)c2ccc(O)c(C3=NN(c4ccccc4)C(c4ccc(Cl)cc4)C3)c2o1 (centres undefined) |  |  |  |  | 38.91 °C | 38.81 °C | 3.35% | 38.91 °C | 2.63% | 3.11% | 330 mg/kg | 39.05 °C | 18.85% | 0.71% |  |  |  |  |  |
| N#Cc1c(-c2ccccc2O)cc(-c2c(O)ccc3c(-c4ccccc4)cc(=O)oc23)[nH]c1=N |  |  |  |  | 38.91 °C | 38.91 °C | 9.62% | 39.01 °C | 9.38% | 2.58% | 310 mg/kg | 38.94 °C | 16.31% | 9.62% |  |  |  |  |  |
| C/C(=N\Nc1ccc([N+](=O)[O-])cc1[N+](=O)[O-])c1c(O)ccc2c(-c3ccccc3)cc(=O)oc12 |  |  |  |  | 38.34 °C | 38.05 °C | 13.41% | 38.42 °C | 18.35% | 4.47% | 370 mg/kg | 38.93 °C | 0.67% | 16.7% |  |  |  |  |  |
| CN(C)c1ccc(-c2cc(-c3c(O)ccc4c(-c5ccccc5)cc(=O)oc34)[nH]c(=N)c2C#N)cc1 |  |  |  |  | 38.39 °C | 38.17 °C | 11.52% | 38.38 °C | 12% | 3.76% | 310 mg/kg | 38.89 °C | 18.85% | 9.41% |  |  |  |  |  |
| COc1ccc(-c2cc(-c3c(O)ccc4c(-c5ccccc5)cc(=O)oc34)[nH]c(=O)c2C#N)cc1 |  |  |  |  | 38.64 °C | 38.71 °C | 9.47% | 38.81 °C | 2.84% | 1.18% | 330 mg/kg | 38.91 °C | 5.78% | 0.94% |  |  |  |  |  |
| O=C(/C=C/c1ccc(Cl)cc1)c1c(O)ccc2c(-c3ccccc3)cc(=O)oc12 |  |  |  |  | 38.84 °C | 38.91 °C | 1.65% | 39.05 °C | 0.94% | 0.94% | 330 mg/kg | 38.91 °C | 20.27% | 0% |  |  |  |  |  |
| O=c1cc(-c2ccccc2)c2ccc(O)c(C3=NNC(c4ccc(Cl)cc4)C3)c2o1 (centres undefined) |  |  |  |  | 38.9 °C | 38.84 °C | 1.65% | 38.9 °C | 1.65% | 1.18% | 310 mg/kg | 38.91 °C | 17.4% | 0.71% |  |  |  |  |  |
| CN(C)c1ccc(C2CC(c3c(O)ccc4c(-c5ccccc5)cc(=O)oc34)=NN2)cc1 (centres undefined) |  |  |  |  | 38.91 °C | 38.9 °C | 2.35% | 38.91 °C | 1.64% | 2.11% | 310 mg/kg | 38.91 °C | 8.7% | 1.41% |  |  |  |  |  |
| CN(C)c1ccc(/C=C/C(=O)c2c(O)ccc3c(-c4ccccc4)cc(=O)oc23)cc1 |  |  |  |  | 38.51 °C | 38.21 °C | 22.82% | 38.31 °C | 36.94% | 9.41% | 390 mg/kg | 38.86 °C | 17.4% | 37.41% |  |  |  |  |  |
| Cc1ccc(-c2cc(C(F)(F)F)nn2-c2ccc(S(N)(=O)=O)cc2)cc1 [CELECOXIB] |  |  |  |  |  |  |  |  |  |  |  |  |  |  | 39.67% |  |  |  |  |
| CC(=O)Nc1ccc(O)cc1 [ACETAMINOPHEN] |  |  |  |  |  |  |  |  |  |  |  |  |  |  |  | 37.38 °C | 37.2 °C | 37.27 °C | 37.16 °C |
| COc1ccc(-c2cc(-c3c(O)ccc4c(-c5ccccc5)cc(=O)oc34)[nH]c(=N)c2C#N)cc1 |  |  |  |  | 38.81 °C | 38.81 °C | 1.17% | 38.9 °C | 0.7% | 1.88% | 330 mg/kg | 38.91 °C | 15.94% | 4.7% |  |  |  |  |  |
| CC(=O)c1c(O)ccc2c(-c3ccccc3)cc(=O)oc12 |  |  |  |  | 39 °C | 38.91 °C | 4.92% | 38.91 °C | 2.34% | 2.81% | 290 mg/kg | 39.06 °C | 20.27% | 0% |  |  |  |  |  |
| COc1ccc(C2CC(c3c(O)ccc4c(-c5ccccc5)cc(=O)oc34)=NN2c2ccccc2)cc1 (centres undefined) |  |  |  |  | 38.44 °C | 38.14 °C | 18.24% | 38.51 °C | 39.09% | 6.63% | 370 mg/kg | 38.87 °C | 18.85% | 41.23% |  |  |  |  |  |
| O=c1cc(-c2ccccc2)c2ccc(O)c(C3=NN(c4ccc([N+](=O)[O-])cc4[N+](=O)[O-])C(c4ccc(Cl)cc4)C3)c2o1 (centres undefined) |  |  |  |  | 38.91 °C | 38.91 °C | 0.93% | 38.81 °C | 1.4% | 1.4% | 390 mg/kg | 38.94 °C | 11.27% | 0.93% |  |  |  |  |  |
| COc1ccc(/C=C/C(=O)c2c(O)ccc3c(-c4ccccc4)cc(=O)oc23)cc1 |  |  |  |  | 38.95 °C | 38.91 °C | 9.41% | 38.91 °C | 9.41% | 3.52% | 290 mg/kg | 39.11 °C | 12.35% | 9.41% |  |  |  |  |  |
| COc1ccc(C2CC(c3c(O)ccc4c(-c5ccccc5)cc(=O)oc34)=NN2)cc1 (centres undefined) |  |  |  |  | 38.91 °C | 38.91 °C | 5.23% | 38.81 °C | 10.71% | 0.71% | 330 mg/kg | 39.15 °C | 8.7% | 10% |  |  |  |  |  |
| N#Cc1c(-c2ccccc2O)cc(-c2c(O)ccc3c(-c4ccccc4)cc(=O)oc23)[nH]c1=O |  |  |  |  | 38.47 °C | 38.2 °C | 19.14% | 38.34 °C | 30.49% | 6.38% | 290 mg/kg | 38.91 °C | 4.33% | 41.84% |  |  |  |  |  |
| N#Cc1c(-c2cccnc2)cc(-c2c(O)ccc3c(-c4ccccc4)cc(=O)oc23)[nH]c1=N |  |  |  |  | 38.91 °C | 38.94 °C | 5.15% | 39.11 °C | 7.02% | 5.15% | 370 mg/kg | 38.91 °C | 16.21% | 7.49% |  |  |  |  |  |
| C/C(=N\Nc1ccccc1)c1c(O)ccc2c(-c3ccccc3)cc(=O)oc12 |  |  |  |  | 38.91 °C | 38.81 °C | 2.81% | 39.11 °C | 2.58% | 1.17% | 290 mg/kg | 38.91 °C | 12.35% | 3.75% |  |  |  |  |  |
